Entries after “also recorded” stand apart in the source; their conditions may differ. Read-outs that look alike come from different tables or passages of the source.
Experiments:
[1] = Brain/plasma pharmacokinetic study in vivo; settings: ICR mice; for concentration at 5 min / Kp at 5 min: 5 min after tail vein injection of 1.5 mg/kg
Description: Further, the brain permeability of representative compounds was evaluated in ICR mice. After tail vein injection of a 1.5 mg/kg dose, the concentrations of the compounds in the brain and plasma were measured after 5 min and 60 min of administration, and the brain/plasma (B/P) ratio was calculated. […] On the contrary, compounds H42 and H52 performed high B/P ratios, which were consistent with our initial expectations. Among them, the B/P ratio of H42 reached balance rapidly in vivo and maintained above 3, while the proportion of H52 in the brain increased gradually and reached 4.41 at 60 min.
All animal experiments were complied with the ARRIVE guidelines and were carried out in accordance with the U.K. Animals Act, 1986 and associated guidelines. The ICR mice were used in plasma–brain distribution assay of compounds. After tail vein injection of a 1.5 mg/kg dose, the concentrations of the compounds in the brain and plasma were measured after 5 min and 60 min of administration, and the brain/plasma (B/P) ratio was calculated. The samples of plasma and brain tissue were prepared as previously reported. An established LC-MS/MS method was used for determining the concentration of representative compounds in plasma and brain tissue.

[2] = test system: MDCK cells monolayer model; settings: dog, 3 h, 10 µM
[3] = test system: MCF7 cells; experiment: MTT antiproliferation assay, MCF7 cells; type: cell-based; settings: Homo sapiens, breast cancer cell line, 48 h
Description: (§1) Due to their acceptable inhibition rates (more than 50%) at the concentration of 50 nM, compounds H34, H42, H48, H50, and H52 were selected to evaluate the proliferation inhibition activity on several cancer cells, including BRCA1 mutant tumour cells (MX-1) and BRCA1 wild type tumour cells (MCF7 and A549).
(§2) The MTT assay was performed to detect the sensitivity of cells to anticancer drugs in vitro. The human A549, MCF7, and U87 tumour cells, as well as human BRCA mutant tumour cells (MX-1), were tested in this study. The cell culture was carried out in accordance with routine operations or instructions. Briefly, 5,000 cells were seeded in each well of a 96-well plate. After cell attachment to the bottom of the well, different concentrations of tested compounds were added into designated wells. After 48 h of incubation, 20 µL of MTT solution (5 mg/mL) were added to each well for cell staining. After 4 h, the media were removed and 150 µL of DMSO were added to each well. Finally, the absorbance was determined at 570 nm using a multifunctional microplate reader (TECAN).

[4] = biological target: T1, PARP-1 (Homo sapiens, UniProt P09874); experiment: PARP-1 enzyme inhibition assay (BPS Bioscience PARP Colorimetric Assay Kit); type: biochemical; settings: for inhibition at 0.05 µM: compound concentration 50 nM, three independent tests
T1 construct: purchased BPS Bioscience 80580
T1 sequence (P09874 whole entry): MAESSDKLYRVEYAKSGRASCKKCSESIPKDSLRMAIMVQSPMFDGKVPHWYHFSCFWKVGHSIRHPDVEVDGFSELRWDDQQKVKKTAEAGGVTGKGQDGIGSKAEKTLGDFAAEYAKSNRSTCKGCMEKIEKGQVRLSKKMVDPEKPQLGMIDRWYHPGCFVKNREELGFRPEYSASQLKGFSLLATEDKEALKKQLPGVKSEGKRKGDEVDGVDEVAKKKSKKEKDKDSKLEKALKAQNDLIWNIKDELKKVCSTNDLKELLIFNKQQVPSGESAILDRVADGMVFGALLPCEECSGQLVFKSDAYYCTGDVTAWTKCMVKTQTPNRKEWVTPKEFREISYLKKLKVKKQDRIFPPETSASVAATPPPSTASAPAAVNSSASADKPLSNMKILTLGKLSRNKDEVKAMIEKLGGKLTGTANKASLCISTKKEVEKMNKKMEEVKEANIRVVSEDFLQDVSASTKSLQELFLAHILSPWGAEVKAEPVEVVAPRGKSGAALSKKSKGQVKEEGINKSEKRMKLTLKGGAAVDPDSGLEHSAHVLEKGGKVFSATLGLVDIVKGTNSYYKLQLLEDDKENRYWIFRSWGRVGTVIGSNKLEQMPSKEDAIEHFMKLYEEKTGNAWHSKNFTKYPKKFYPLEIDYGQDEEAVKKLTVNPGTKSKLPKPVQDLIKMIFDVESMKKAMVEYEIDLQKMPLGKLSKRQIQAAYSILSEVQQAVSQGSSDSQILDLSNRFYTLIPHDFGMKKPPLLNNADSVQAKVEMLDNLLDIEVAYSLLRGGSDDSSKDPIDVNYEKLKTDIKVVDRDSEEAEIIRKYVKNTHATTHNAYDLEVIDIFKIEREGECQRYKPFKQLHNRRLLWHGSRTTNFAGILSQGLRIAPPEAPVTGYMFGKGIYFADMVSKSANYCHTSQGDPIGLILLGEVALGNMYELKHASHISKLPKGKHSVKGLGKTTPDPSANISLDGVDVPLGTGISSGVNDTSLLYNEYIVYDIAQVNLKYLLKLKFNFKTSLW
Description: All target compounds were evaluated for PARP-1 enzyme inhibition activity at the concentration of 50 nM determined by previous pre-experiments.
The ability of the compounds to inhibit PARP-1 enzyme activity was assessed using BPS Bioscience's PARP Colorimetric Assay Kit (BPS Bioscience, Catalog # 80580). PARP-1 is known to catalyse the NAD-dependent addition of poly(ADP-ribose) to histones. The PARP-1 assay kit comes in a convenient 96-well format, with purified PARP-1 enzyme, histone mixture, activated DNA, and PARP-1 assay buffer. The key to the PARP-1 Colorimetric Activity Assay is the biotinylated substrate. With this kit, only three simple steps are required for PARP-1 reactions. First, histone proteins are coated on a 96-well plate. Next, the PARP-1 biotinylated substrate is incubated with an assay buffer that contains the PARP-1 enzyme. Finally, the plate is treated with streptavidin-HRP followed by the addition of the colorimetric HRP substrate to produce colour that can then be measured using a UV/Vis spectrophotometer microplate reader. IC50 values were calculated using GraphPad Prism5 software.

[5] = test system: MX-1 (BRCA1 mutant tumour cells); experiment: MTT antiproliferation assay, MX-1 cells; type: cell-based; settings: Homo sapiens, MX1, breast cancer cell line, 48 h
Description: as §1, §2

[6] = test system: A549 cells; experiment: MTT antiproliferation assay, A549 cells; type: cell-based; settings: Homo sapiens, lung cancer cell line, 48 h
Description: as §1, §2

[7] = cited from earlier work
[8] = in vitro; settings: dog, MDCK
[9] = biological target: PARP-2 (Homo sapiens, UniProt Q9UGN5); experiment: PARP-2 enzyme inhibition (IC50); type: biochemical
Sequence of PARP-2 (Q9UGN5 whole entry): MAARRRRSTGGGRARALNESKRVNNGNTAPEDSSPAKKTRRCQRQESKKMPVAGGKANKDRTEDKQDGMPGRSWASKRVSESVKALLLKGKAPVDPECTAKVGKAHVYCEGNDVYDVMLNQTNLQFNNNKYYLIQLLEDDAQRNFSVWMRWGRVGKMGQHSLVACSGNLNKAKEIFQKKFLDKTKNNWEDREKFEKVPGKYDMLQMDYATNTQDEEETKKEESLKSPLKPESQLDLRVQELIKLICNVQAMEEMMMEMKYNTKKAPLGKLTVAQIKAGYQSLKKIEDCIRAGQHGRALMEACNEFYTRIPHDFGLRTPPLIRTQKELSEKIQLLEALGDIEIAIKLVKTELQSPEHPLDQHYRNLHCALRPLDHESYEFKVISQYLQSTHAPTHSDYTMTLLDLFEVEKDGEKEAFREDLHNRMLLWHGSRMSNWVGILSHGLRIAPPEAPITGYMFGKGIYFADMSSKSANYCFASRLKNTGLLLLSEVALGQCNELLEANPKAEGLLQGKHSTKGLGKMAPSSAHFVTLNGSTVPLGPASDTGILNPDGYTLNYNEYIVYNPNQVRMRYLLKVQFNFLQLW
From the text: PARP-2 is the closest homolog of PARP-1, which also resides in the nucleus and functions similarly to PARP-1.

[10] = test system: glioblastoma (U87) cells; experiment: Antiproliferation in combination with TMZ, U87 cells; type: cell-based, human; settings: combination with Temozolomide
Description: as §2

[11] = mouse, brain, intravenous, read-out: Brain
[12] = mouse, brain, intravenous, 60 min after tail vein injection of 1.5 mg/kg, read-out: Brain
[13] = mouse, brain/plasma, intravenous, read-out: B/P ratio
[14] = mouse, brain/plasma, intravenous, 60 min after tail vein injection of 1.5 mg/kg, read-out: B/P ratio
[15] = mouse, plasma, intravenous, read-out: Plasma
[16] = mouse, plasma, intravenous, 60 min after tail vein injection of 1.5 mg/kg, read-out: Plasma

SMILES | concentration at 5 min [1, 11] [ng/g] | concentration at 60 min [1, 12] [ng/g] | Kp at 5 min [1, 13] | Kp at 60 min [1, 14] | concentration at 5 min [1, 15] [ng/mL] | concentration at 60 min [1, 16] [ng/mL] | Capical [2] [µg/mL] | IC50 [3] [µM] | inhibition at 0.05 µM [4] [%] | IC50 [5] [µM] | IC50 [6] [µM] | Cbasolateral [2] [µg/mL] | IC50 [4] [µM] | Papp A→B at 3 h, 10 µM [8] [×10⁻⁶ cm/s] | IC50 [9] [µM] | B/P ratio ([1]; 60 min after tail vein injection of 1.5 mg/kg, 1.5 mg/kg) [fold] | Kp ([1]; mouse, brain/plasma, intravenous, maintained over 5 and 60 min, 1.5 mg/kg tail vein, read-out: B/P ratio) | CNS penetration [7] | Sensitisation effect in combination with TMZ [10]
CNCc1ccc(-c2[nH]c3cc(F)cc4c3c2CCNC4=O)cc1 [Rucaparib, reference compound] | 170 ± 48.5 | 13.9 ± 3.78 | 0.14 ± 0.04 | 0.1 ± 0.06 | 1180 ± 122 | 161 ± 60.5 | 3.39 ± 0.82 | 20.2 ± 3.1 | 98.2 ± 2.7 | 5.5 ± 2.2 | 34.9 ± 5.2 |  |  |  |  |  |  | could not pass through the blood-brain barrier; also recorded: not CNS penetrant | 
Cn1ncnc1[C@H]1c2n[nH]c(=O)c3cc(F)cc(c23)N[C@@H]1c1ccc(F)cc1 [Talazoparib] |  |  |  |  |  |  |  |  |  |  |  |  |  |  |  |  |  | not CNS penetrant | 
O=C(c1cc(Cc2n[nH]c(=O)c3ccccc23)ccc1F)N1CCN(C(=O)C2CC2)CC1 [Olaparib] |  |  |  |  |  |  |  |  |  |  |  |  |  |  |  |  |  | not CNS penetrant | 

Second part, led by results:

concentration at 5 min [1, 11] [ng/g] | concentration at 60 min [1, 12] [ng/g] | Kp at 5 min [1, 13] | Kp at 60 min [1, 14] | concentration at 5 min [1, 15] [ng/mL] | concentration at 60 min [1, 16] [ng/mL] | Capical [2] [µg/mL] | IC50 [3] [µM] | inhibition at 0.05 µM [4] [%] | IC50 [5] [µM] | IC50 [6] [µM] | Cbasolateral [2] [µg/mL] | IC50 [4] [µM] | Papp A→B at 3 h, 10 µM [8] [×10⁻⁶ cm/s] | IC50 [9] [µM] | B/P ratio ([1]; 60 min after tail vein injection of 1.5 mg/kg, 1.5 mg/kg) [fold] | Kp ([1]; mouse, brain/plasma, intravenous, maintained over 5 and 60 min, 1.5 mg/kg tail vein, read-out: B/P ratio) | SMILES | CNS penetration [7] | Sensitisation effect in combination with TMZ [10]
1050 ± 153 | 10.1 ± 0.87 | 0.4 ± 0.05 | 0.07 ± 0.02 | 2650 ± 264 | 157 ± 32.3 | 2.43 ± 0.42 | 35.7 ± 2.9 | > 50 | 30.7 ± 4 | 176 ± 23.1 | 0.23 ± 0.06 | 0.0378 | 11.7 ± 0.51 | 0.0407 |  |  | Nc1ccc(-c2ccc(C3CNC(=O)c4ccccc4N3)cc2)cc1 (stereo not drawn) [Compound H48, 2-(4′-Amino-[1,1′-biphenyl]-4-yl)-1,2,3,4-tetrahydro-5H-benzo[e][1,4]diazepin-5-one] |  | 
1570 ± 264 | 2630 ± 118 | 2.18 ± 0.27 | 4.41 | 719 ± 39.9 | 597 ± 25 | 1.65 ± 0.05 | 37.9 ± 3.5 | > 50 | 24.6 ± 3.7 | 157 ± 15.2 | 0.45 ± 0.07 | 0.0302 | 19.7 ± 0.92 | 0.0396 | 4.41 ± 0.07 |  | O=C1NCC(c2ccc(-c3ccc(C(F)(F)F)cc3)cc2)Nc2ccccc21 (stereo not drawn) [Compound H52, 2-(4′-(Trifluoromethyl)-[1,1′-biphenyl]-4-yl)-1,2,3,4-tetrahydro-5H-benzo[e][1,4]diazepin-5-one] |  | significant sensitisation effects
1820 ± 324 | 51.8 ± 13.6 | 3.28 ± 0.28 | 3.58 ± 0.53 | 555 ± 104 | 15.1 ± 5.44 | 1.62 ± 0.37 | 39.4 ± 4.2 | > 50 | 31.4 ± 2.8 | 162 ± 18.4 | 0.33 ± 0.05 | 0.0403 | 16.1 ± 1.08 | 0.0471 |  | > 3 | COc1ccc(-c2ccc(C3=Nc4ccccc4C(=O)NC3)cc2)cc1 [Compound H42, 2-(4′-Methoxy-[1,1′-biphenyl]-4-yl)-3,4-dihydro-5H-benzo[e][1,4]diazepin-5-one] |  | significant sensitisation effects
301 ± 52.5 | 9.67 ± 8.75 | 0.1 ± 0.01 | 0.01 ± 0.01 | 3120 ± 220 | 1050 ± 70.3 | 1.65 ± 0.32 | 44.3 ± 5.2 | > 50 | 40.3 ± 3.3 | 121 ± 16.2 | 0.31 ± 0.08 | 0.0414 | 15.7 ± 1.32 | 0.0512 |  |  | Cc1n[nH]c(C)c1-c1ccc(C2=Nc3ccccc3C(=O)NC2)cc1 [Compound H34, 2-(4-(3,5-Dimethyl-1H-pyrazol-4-yl)phenyl)-3,4-dihydro-5H-benzo[e][1,4]diazepin-5-one] |  | 

From paper PMC8942544, “Design and synthesis of benzodiazepines as brain penetrating PARP-1 inhibitors” (Journal of Enzyme Inhibition and Medicinal Chemistry, 2022)
